Test system: IL-2 production by Jurkat cells
Test: Inhibition of IL-2 production by Jurkat cells after PMA/PHA co-stimulation (ELISA)
Type: cell-based, human
Conditions: PMA and PHA co-stimulation; for IL-2% Inhibition: 24 hours
Description: Compounds of the invention were tested for their activity as inhibitors of T Cell stimulation by measuring the effect on IL-2 production by Jurkat cells following PMA (phorbol 12-myristate 13-acetate) and PHA (phytohemagglutinin) co-stimulation. All new compounds were tested at 0.1 uM, 1 uM and 10 uM. Cyclosporine A (control) was also tested at 0.1 uM, 1 uM and 10 uM. All compounds to be tested were dissolved in dimethyl sulfoxide. Cytotoxicity was evaluated with parallel Alamar Blue plates. Jurkat cells were seeded at 2×10^5 cells per well in 200 μL growth media in a clear, U-bottom 96-well plate. Cells were cultured in RPMI 1640 medium, 10% fetal bovine serum, and L-Glutamine with incubation at 37° C. with 5% carbon dioxide. After 1 hour of incubation the cells were stimulated with PMA (12.5 uL of a 1 ng/mL solution in 1% DMSO/media) and PHA (12.5 uL of a 5 ug/mL solution in PBS). After 24 hours the sample supernatants were harvested and stored at −80° C. A sample of the supernatant (25 uL) was diluted with RPMI (25 uL) and the concentration of human IL-2 was determined by ELISA (Pierce, EH2IL25).

Row | SMILES | IL-2% Inhibition (1 uM) [%] | IL-2% Inhibition (10 uM) [%] | IC50 [µM]
1 | CCC1CC(C)C([C@H]2C(=O)N[C@@H](CC)C(=O)N(C)CC(=O)N(C)[C@@H](CC(C)C)C(=O)N[C@@H](C(C)C)C(=O)N(C)[C@@H](CC(C)C)C(=O)N[C@@H](C)C(=O)N[C@H](C)C(=O)N(C)[C@@H](CC(C)C)C(=O)N(C)[C@@H](CC(C)C)C(=O)N(C)[C@@H](C(C)C)C(=O)N2C)O1 (stereo partly drawn) [Example A, 1-[(2S)—N-Methyl-2-[tetrahydro-5-ethyl-3-methyl-2-furanyl]glycine]-cyclosporin A] | 84 |  | 
2 | CCC1CC(C)C([C@H]2C(=O)N[C@@H](CC)C(=O)N(C)CC(=O)N(C)[C@@H](CC(C)(C)O)C(=O)N[C@@H](C(C)C)C(=O)N(C)[C@@H](CC(C)C)C(=O)N[C@@H](C)C(=O)N[C@H](C)C(=O)N(C)[C@@H](CC(C)C)C(=O)N(C)[C@@H](CC(C)C)C(=O)N(C)[C@@H](C(C)C)C(=O)N2C)O1 (stereo partly drawn) [Example C, 1-[(2S)—N-Methyl-2-[tetrahydro-5-ethyl-3-methyl-2-furanyl]glycine]-4-(4-hydroxy-N-methyl-L-leucine)-cyclosporin A] | 16 |  | 
3 | C=CC1CC(C)C(C2C(=O)NC(CC)C(=O)N(C)CC(=O)N(C)C(CC(C)(C)O)C(=O)NC(C(C)C)C(=O)N(C)C(CC(C)C)C(=O)NC(C)C(=O)NC(C)C(=O)N(C)C(CC(C)C)C(=O)N(C)C(CC(C)C)C(=O)N(C)C(C(C)C)C(=O)N2C)O1 [Example D, 1-[(2S)—N-methyl-2-[tetrahydro-5-ethenyl-3-methyl-2-furanyl]glycine]-4-(4-hydroxy-N-methyl-L-leucine)-cyclosporin A] | 8 |  | 
4 | CCC1CC(C)C([C@H]2C(=O)N[C@@H](CC)C(=O)N(C)[C@H](SCCN(C)C)C(=O)N(C)[C@@H](CC(C)(C)O)C(=O)N[C@@H](C(C)C)C(=O)N(C)[C@@H](CC(C)C)C(=O)N[C@@H](C)C(=O)N[C@H](C)C(=O)N(C)[C@@H](CC(C)C)C(=O)N(C)[C@@H](CC(C)C)C(=O)N(C)[C@@H](C(C)C)C(=O)N2C)O1 (stereo partly drawn) [Example F, 1-[(2S)—N-methyl-2-[tetrahydro-5-ethyl-3-methyl-2-furanyl]glycine]-3-[2R-[[2-(dimethylamino)ethyl]thio]-N-methylglycine]-4-(4-hydroxy-N-methyl-L-leucine)-cyclosporin A] | 2 | 5 | 
5 | C=CC1CC(C)C(C2C(=O)NC(CC)C(=O)N(C)C(SCCN(C)C)C(=O)N(C)C(CC(C)(C)O)C(=O)NC(C(C)C)C(=O)N(C)C(CC(C)C)C(=O)NC(C)C(=O)NC(C)C(=O)N(C)C(CC(C)C)C(=O)N(C)C(CC(C)C)C(=O)N(C)C(C(C)C)C(=O)N2C)O1 [Example G, 1-[(2S)—N-methyl-2-[tetrahydro-5-ethenyl-3-methyl-2-furanyl]glycine]-3-[2R-[[2-(dimethylamino)ethyl]thio]-N-methylglycine]-4-(4-hydroxy-N-methyl-L-leucine)-cyclosporin A] |  |  | > 10

Source: patent publication US10738084B2, “Macrocycles” (Sentry Therapeutics Limited, priority 2015, dated 2020)
